This note sets out measurements from US20120258938A1, “Enzymatic Production or Chemical Synthesis and Uses for 5,7-Dienes and UVB Conversion Products Thereof” (priority 2008, published 2012).

The subject of one test is type I collagen. The test can be described thus: Type I collagen ELISA, TGF-b1 stimulated skin fibroblasts. In kind it is cell-based. Particulars: human skin fibroblasts. The method, then:
Additional studies using human skin fibroblasts were performed employing a type I collagen specific ELISA Chondrex, and real time RT PCR to quantitate type I collagen protein and Col1A1 mRNA expression in culture of human fibroblast stimulated by TGF-b1 in the presence and absence of 17,20S(OH)2pD3 and/or 20(OH)D3. These studies confirmed that Type I collagen protein production that was induced by TGF-b1 and that Col1A1 mRNA that was induced by TGF-b1 were suppressed by these analogues (FIGS. 44A-44B).
For orientation: ELISA stands for enzyme-linked immunosorbent assay.

For another test, the system named is cytokeratin 14. The test can be described thus: Real-time RT PCR cytokeratin 14 mRNA, normal epidermal keratinocytes. Particulars: 10^−10 M. In kind it is cell-based, human. The method, then:
RNA was extracted using an Absolutely RNA RT-PCR Miniprep Kit (Stratagene, La Jolla, Calif.). Real time PCR and reverse transcription products were purchased from Applied Biosystems, Foster City, Calif. Reverse transcription was performed using Taqman® Reverse Transcription Reagents. The following PCR products were used: cytokeratin 14: Hs00265033_m1, involucrin: Hs00846307_s1, CYP27A1: Hs00168003_ml, CYP27B1: Hs00168017_ml, 18SrRNA: Hs99999901_s1. The reaction was performed with Taqman® Universal PCR Master Mix; data were collected on an ABI Prism 7700 and analyzed on Sequence Detector 1.9.1. Specific gene amounts were related to 18SrRNA by comparative CT method.

In the next test the test system is NFκB. In words: Electrophoretic mobility shift assay for NF-κB activation. The test is classed as cell-based, human. To be noted: HaCaT nuclear extracts, 10^−7 M. The text has this:
Electrophoretic mobility shift assay (EMSA) was done using the Odyssey Infrared Imaging System (LI-COR, Inc., Lincoln, Nebr.). The synthetic IRDye-labeled oligonucleotide (LI-COR) used for the DNA mobility shift assay contained the wild-type VDRE sequence sp1 promoter and part of INVOLUCRIN sequence contained the sequence: 5′-GCGGGAGGCAGATCTGGCAGATACTGA-3′ (SEQ ID NO: 3). Oligo was end labeled with infrared dye 700. Unlabeled oligo contained the same sequence. The DNA binding reaction was set up using 2.5 μg of the nuclear extract mixed with oligonucleotide and gel shift binding buffer consisting of: 2.5 mmol/L DTT, 0.25% Tween-20 and 0.25 mg/ml poly(dl):poly(dC) according to the LI-COR protocol. The reaction was incubated at room temperature in the dark for 30 minutes. For NF-κB activation p65 antibody was added to the 1 sample and incubated for the 30 min. Orange loading dye (2 μl of 10×) was added to each sample and loaded on the prerun 5% polyacrylamide gel and ran at 80V for 1 hour. The gel was scanned using Odyssey Infrared Imaging System.
HaCaT keratinocytes were treated with 20,23-dihydroxycholecalciferol for indicated time: 0 h, 30 min, 1 h, 4 h, 16 h and 24 h, at the concentration of 10^−7 [M]. […]

Test [1] concerns U937 promonocytic leukemia cells. The test can be described thus: Monocytic differentiation (NBT), U937. In kind it is cell-based, human. Particulars: U937, 0.1 μM. The method, then: HL-60 human promyelocytic and U937 promonocytic leukemia cells were treated with the drugs at 0.1 μM or vehicle (negative control or 12-O-tetradecanoylphorbol-13-acetate (TPA) (positive control). Media were changed every 72 h and test substances added fresh every day. Differentiation toward monocytes-like morphology and NBT-reduction has been assessed after 5 and 7 days. Cells (2×106) were washed with PBS four times and resuspended in 200 μL of NBT solution (4 mg/mL) in water. After the addition of 200 ul of TPA solution (2 ug/ml) in PBS cells were incubated at 37° C. for 60 min in 24-well plates. Cell differentiation was assessed by intracellular blue formazan deposits. The NBT positive and negative cells were scored under light microscopy examination (40×) with a minimum of 200 cells scored.
For spectrophotometric analysis the cells were washed twice with buffer containing cold bovine serum albumin solution (17 mg/mL BSA, 137 mmol/L, NaCl, 5 mmol/L, KCl, 0.8 mmol/L, MgSO4, […], HEPES, pH7.4) to remove unreacted NBT, and the insoluble formazan deposits in the resulting pellet were solubilized in 1 mL of a mixture containing 90% DMSO, 0.1% SDS and 0.01 mmol/L NaOH by vigorous vortexing. The samples were centrifuged 5 min at 1500 g to remove the cellular debris, and then the absorbance of supernatants was measured at 715 nm. Data are expressed as change in A715/106 cells.

The test system of test [2] is K562 human chronic myeloid leukemia cells. The test can be described thus: Viable cell count, K562 cells. To be noted: 10^-7 M, 7 days. The test is classed as cell-based. The method, then:
(§1) K562 human chronic myeloid leukemia (erythroleukemia) and MEL mouse erytholeukemia cells were cultured in RPMI 1640 containing 10% FBS and treated with the drugs at concentrations 0.1 μM. A 0.1% ethanol (EtOH) or 2% DMSO were used as negative or positive control, respectively to estimate the vehicle effect and the ability of the cells to differentiate. Media were exchanged every 72 h and drugs added every day. Growth of cultures was estimated by counting number of viable cells (trypan blue negative cells) as described previously.

Test [3] shares this test system. In words: Erythroid differentiation of K562 cells. The test is classed as cell-based. To be noted: 10^-7 M, 7 days. The method, then: as §1
To estimate erythroid differentiation (production of hemoglobin), first the number of benzidine positive cells was evaluated after 2 and 7 days in culture. Cells were centrifuged and washed four times with PBS and resuspended in 1 mL of fresh PBS. For hemoglobin determination, a benzidine staining solution was freshly prepared by mixing one part of 30% hydrogen peroxide, one part of base stock solution of 3% benzidine in 90% acetic acid, and 5 parts of water. The solution was diluted 1:10 with the cell suspension and aliquoted in 4 wells in 24-well plate (250 μl each). After 10 min of incubation at RT benzidine-positive cells were counted under the microscope with a minimum of 200 cells scored.
Second, to define spectrophotometrically relative content of hemoglobin, equal number of cells (7×106) were washed with cold PBS and lysed for 20 min in 100 μL of lysis buffer (0.2% Triton X-100 in […] potassium phosphate buffer, pH 7.8). The lysates were centrifuged for 15 min at 1500 r.p.m. and 100 μL of the supernatant was incubated with 2 mL of benzidine solution (5 mg/mL in glacial acetic acid) and 2 ml 30% H2O2 for 10 min increases in comparison with the level of hemoglobin in mock-induced K562 or MEL cells.

Consider `C=C1CC[C@H](O)C/C1=C/C=C1\CCC[C@@]2(C)[C@H]1CC[C@@H]2[C@@](C)(O)CCCC(C)C` [20(OH)D3, (5Z,7E)-9,10-secocholesta-5,7,10(19)-triene-3β,20-diol], for which the “TGF-b1 induced Type I collagen protein production (ELISA)” value with type I collagen is on record as “suppressed”. The “cytokeratin 14 mRNA expression” value in the test with cytokeratin 14 (1 h) is listed as 45 % of the control; in the test with cytokeratin 14 (6 h), 62 % of the control.

In the case of `C=C1CC[C@H](O)C/C1=C/C=C1\CCC[C@]2(C)[C@@H](C(C)(O)CC(O)CC(C)C)CC[C@@H]12` (stereo partly drawn) [20,23-dihydroxycholecalciferol, (5Z,7E)-9,10-secocholesta-5,7,10(19)-triene-3β,20,23-triol], the “NFκB DNA-binding activity (EMSA)” value with NFκB was “inhibited the NFκB binding activity”.

`C=C1CC[C@H](O)C/C1=C/C=C1\CCC[C@]2(C)[C@@H](C(C)=O)CC[C@@H]12` [pD3, (5Z,7E)-3β-hydroxy-9,10-secopregna-5,7,10(19)-trien-20-one]: the “monocytic differentiation (NBT staining)” value in test [1] is given as “induce monocytic differention”. In addition, the “proliferation of K562 cells” value in test [2] was “inhibit proliferation”. For the same molecule, the “differentiation of K562 cells” value in test [3] is recorded as “induce differentiation”.
